From PubChem BioAssay AID330 (DTP/NCI, 2004)
Several values for one entry are separate records, joined by “and”; a condition that tells them apart may be missing. Equal values may be shown once. Toxic doses and inconclusive results are not listed. Peptide text beside a SMILES is read from it. * marks the point of attachment. Cbz = O=C(OCc1ccccc1)*

Tested on: P388 leukemia ip, CD2F1 mice, survival T/C
Experiment: NCI In Vivo Anticancer Drug Screen. Data for tumor model P388 Leukemia (intraperitoneal) in CD2F1 (CDF1) mice
Conditions: endpoint: median survival time, higher = longer survival
Method in brief: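 Mice carrying the transplanted tumor received test compound or vehicle. Survival was recorded in each group, and the value is the treated-group measurement divided by that of the vehicle-treated control group.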

[1] = dose: 50.0 mg/kg/injection, schedule: Q01DX009 (ip), vehicle: saline
[2] = dose: 100.0 mg/kg/injection, schedule: Q01DX009 (ip), vehicle: saline
[3] = dose: 200.0 mg/kg/injection, schedule: Q01DX009 (ip), vehicle: saline
[4] = dose: 50.0 mg/kg/injection, schedule: Q01DX005 (ip), vehicle: saline with Tween-80
[5] = dose: 100.0 mg/kg/injection, schedule: Q01DX005 (ip), vehicle: saline with Tween-80
[6] = dose: 200.0 mg/kg/injection, schedule: Q01DX005 (ip), vehicle: saline with Tween-80
[7] = dose: 60.0 mg/kg/injection, schedule: Q01DX005 (ip), vehicle: saline with Tween-80
[8] = dose: 100.0 mg/kg/injection, schedule: Q04DX003 (ip), vehicle: saline
[9] = dose: 200.0 mg/kg/injection, schedule: Q04DX003 (ip), vehicle: saline
[10] = dose: 25.0 mg/kg/injection, schedule: Q01DX009 (ip), vehicle: saline with Tween-80
[11] = dose: 50.0 mg/kg/injection, schedule: Q01DX005 (ip), vehicle: Klucel (hydroxypropylcellulose) (HPC)
[12] = dose: 100.0 mg/kg/injection, schedule: Q01DX005 (ip), vehicle: Klucel (hydroxypropylcellulose) (HPC)
[13] = dose: 200.0 mg/kg/injection, schedule: Q01DX005 (ip), vehicle: Klucel (hydroxypropylcellulose) (HPC)

## CN(C)CCN(C(=O)C(O)(c1ccccc1)c1ccccc1)c1ccccc1
[1]
  T/C: 100 % of control
[2]
  T/C: 100 % of control
[3]
  T/C: 107 % of control

## O=C(N/N=C/c1ccc(O)c(O)c1)c1ccccc1
[4]
  T/C: 109 % of control
[5]
  T/C: 118 % of control
[6]
  T/C: 119 % of control

## COc1cccc2c1C(=O)c1c(O)c3c(c(O)c1C2=O)CC(O)(C(C)=O)CC3OC1CC(NC(=O)C(CCCCN)NC(=O)C2CCCN2)C(O)C(C)O1 (centres undefined)
dose: 2.5 mg/kg/injection, schedule: Q04DX003 (ip), vehicle: water
  T/C: 93 % of control
dose: 5.0 mg/kg/injection, schedule: Q04DX003 (ip), vehicle: water
  T/C: 98 % of control
dose: 10.0 mg/kg/injection, schedule: Q04DX003 (ip), vehicle: water
  T/C: 99 % of control and 109 % of control
dose: 20.0 mg/kg/injection, schedule: Q04DX003 (ip), vehicle: water
  T/C: 110 % of control and 118 % of control
dose: 40.0 mg/kg/injection, schedule: Q04DX003 (ip), vehicle: water
  T/C: 121 % of control and 123 % of control
dose: 80.0 mg/kg/injection, schedule: Q04DX003 (ip), vehicle: water
  T/C: 166 % of control

## O=S(=O)(Cc1ccccc1)C1CC1
[1]
  T/C: 122 % of control
dose: 50.0 mg/kg/injection, schedule: Q01DX009 (ip), vehicle: suspension in saline
  T/C: 104 % of control and 106 % of control
[2]
  T/C: 119 % of control
dose: 100.0 mg/kg/injection, schedule: Q01DX009 (ip), vehicle: suspension in saline
  T/C: 108 % of control and 94 % of control
[3]
  T/C: 118 % of control
dose: 200.0 mg/kg/injection, schedule: Q01DX009 (ip), vehicle: suspension in saline
  T/C: 102 % of control and 97 % of control
dose: 400.0 mg/kg/injection, schedule: Q01DX009 (ip), vehicle: saline
  T/C: 102 % of control
dose: 400.0 mg/kg/injection, schedule: Q01DX009 (ip), vehicle: suspension in saline
  T/C: 100 % of control and 105 % of control

## CCOC(=O)c1c(Cl)c(Cc2ccccc2)c(Cl)n2c1nc1ccccc12
[7]
  T/C: 99 % of control
dose: 120.0 mg/kg/injection, schedule: Q01DX005 (ip), vehicle: saline with Tween-80
  T/C: 93 % of control
dose: 240.0 mg/kg/injection, schedule: Q01DX005 (ip), vehicle: saline with Tween-80
  T/C: 89 % of control

## CCOP(=O)(CC(=O)NC(C(N)=O)C(C)C)OCC (centres undefined)
[4]
  T/C: 101 % of control
[5]
  T/C: 104 % of control
[6]
  T/C: 105 % of control

## C=C1C(=O)O[C@H]2[C@H]1[C@@H](OC(=O)C=C(C)C)CC1=C[C@@H](C[C@@]3(C)O[C@@H]23)OC1=O
dose: 12.5 mg/kg/injection, schedule: Q01DX009 (ip), vehicle: saline
  T/C: 92 % of control
dose: 25.0 mg/kg/injection, schedule: Q01DX009 (ip), vehicle: saline
  T/C: 100 % of control
[1]
  T/C: 99 % of control
[2]
  T/C: 101 % of control

## O=S1(=O)CCCCC1
dose: 50.0 mg/kg/injection, schedule: Q04DX003 (ip), vehicle: saline
  T/C: 100 % of control
[8]
  T/C: 100 % of control
[9]
  T/C: 110 % of control

## COC12C=CC(=O)N1CCC2 (centres undefined)
dose: 7.5 mg/kg/injection, schedule: Q01DX005 (ip), vehicle: DMSO
  T/C: 90 % of control
dose: 15.0 mg/kg/injection, schedule: Q01DX005 (ip), vehicle: DMSO
  T/C: 101 % of control
dose: 30.0 mg/kg/injection, schedule: Q01DX005 (ip), vehicle: DMSO
  T/C: 101 % of control

## COc1cc(NC(C)CCCN)c2ncccc2c1Sc1ccc(Cl)cc1 (centres undefined)
dose: 3.13 mg/kg/injection, schedule: Q01DX009 (ip), vehicle: saline with Tween-80
  T/C: 89 % of control
dose: 6.25 mg/kg/injection, schedule: Q01DX009 (ip), vehicle: saline with Tween-80
  T/C: 94 % of control

## CCCCC1CN1C(=N)OCC (centres undefined)
dose: 15.0 mg/kg/injection, schedule: Q01DX005 (ip), vehicle: saline with Tween-80
  T/C: 100 % of control
dose: 25.0 mg/kg/injection, schedule: Q01DX005 (ip), vehicle: saline
  T/C: 100 % of control
dose: 30.0 mg/kg/injection, schedule: Q01DX005 (ip), vehicle: saline with Tween-80
  T/C: 96 % of control
[7]
  T/C: 101 % of control and 95 % of control

## COC(=O)Nc1ccc(Cc2ccc(NC(=O)OC)cc2)cc1
[10]
  T/C: 101 % of control and 104 % of control

## O=C1CN(Cc2cccc(Cl)c2)CC(=O)N2Cc3ccccc3CN12
[4]
  T/C: 106 % of control
[5]
  T/C: 98 % of control

## CC(C)CC(NC(=O)C(Cc1cnc[nH]1)NC(=O)OCc1ccccc1)C(=O)O (stereo not drawn) (Cbz-His-Leu-OH; configuration not given here)
[11]
  T/C: 102 % of control
[12]
  T/C: 104 % of control
[13]
  T/C: 104 % of control

## O=C(OCCn1ncnn1)c1ccc([N+](=O)[O-])cc1
[11]
  T/C: 104 % of control
[12]
  T/C: 104 % of control
[13]
  T/C: 95 % of control

## C[C@]12CCC[C@H](O)[C@H]1O2
[8]
  T/C: 104 % of control
[9]
  T/C: 102 % of control
dose: 400.0 mg/kg/injection, schedule: Q04DX003 (ip), vehicle: saline
  T/C: 102 % of control

## COc1ccc(/C=N/NC(=O)CNC(=O)Nc2n[nH]c(=S)s2)cc1
[11]
  T/C: 100 % of control
[12]
  T/C: 104 % of control
[13]
  T/C: 100 % of control

## C[C@]12CC[C@H]3[C@@H](CCC4=C[C@@H](OC5OCC(OC6OC(CO)C(O)C(O)C6O)C(O)C5O)CC[C@@]43C=O)[C@@]1(O)CCC2C1=CC(=O)OC1 (some centres undefined)
dose: 0.16 mg/kg/injection, schedule: Q01DX009 (ip), vehicle: saline
  T/C: 105 % of control
dose: 0.25 mg/kg/injection, schedule: Q01DX009 (ip), vehicle: saline with Tween-80
  T/C: 95 % of control
dose: 0.31 mg/kg/injection, schedule: Q01DX009 (ip), vehicle: saline
  T/C: 108 % of control
dose: 0.5 mg/kg/injection, schedule: Q01DX009 (ip), vehicle: saline with Tween-80
  T/C: 107 % of control and 95 % of control
dose: 0.63 mg/kg/injection, schedule: Q01DX009 (ip), vehicle: saline
  T/C: 103 % of control
dose: 1.0 mg/kg/injection, schedule: Q01DX009 (ip), vehicle: saline with Tween-80
  T/C: 117 % of control and 97 % of control
dose: 1.25 mg/kg/injection, schedule: Q01DX009 (ip), vehicle: saline
  T/C: 103 % of control

## COc1ccc2nc3cc(Cl)ccc3c(NC(C)CCCN(C)C)c2n1 (centres undefined)
dose: 50.0 mg/kg/injection, schedule: Q01DX005 (ip), vehicle: saline
  T/C: 102 % of control
dose: 100.0 mg/kg/injection, schedule: Q01DX005 (ip), vehicle: saline
  T/C: 110 % of control

## CCc1ccc(C2(C)C(=O)c3ccccc3C2=O)cc1
dose: 100.0 mg/kg/injection, schedule: Q04DX002 (ip), vehicle: saline
  T/C: 101 % of control
dose: 200.0 mg/kg/injection, schedule: Q04DX002 (ip), vehicle: saline
  T/C: 100 % of control
dose: 400.0 mg/kg/injection, schedule: Q04DX002 (ip), vehicle: saline
  T/C: 104 % of control

## CNC[C@@H](O)c1ccc(O)c(O)c1
dose: 0.78 mg/kg/injection, schedule: Q01DX009 (ip), vehicle: suspension in saline
  T/C: 97 % of control
dose: 1.56 mg/kg/injection, schedule: Q01DX009 (ip), vehicle: suspension in saline
  T/C: 104 % of control
dose: 3.12 mg/kg/injection, schedule: Q01DX009 (ip), vehicle: suspension in saline
  T/C: 104 % of control

## CCCCOCN(CCCc1ccccc1)COCCCC
dose: 12.5 mg/kg/injection, schedule: Q01DX009 (ip), vehicle: saline with Tween-80
  T/C: 89 % of control
[10]
  T/C: 102 % of control
dose: 50.0 mg/kg/injection, schedule: Q01DX009 (ip), vehicle: saline with Tween-80
  T/C: 118 % of control

## O=N[O-].O=[N+]([O-])O.[Co+3].[NH2-].[NH2-].[NH2-].[NH2-].[NH2-]
dose: 12.5 mg/kg/injection, schedule: Q01DX001 (ip), vehicle: saline
  T/C: 97 % of control
dose: 25.0 mg/kg/injection, schedule: Q01DX001 (ip), vehicle: saline
  T/C: 110 % of control

## CS(=O)(=O)NCCSSCCNS(C)(=O)=O
[4]
  T/C: 106 % of control
[5]
  T/C: 103 % of control
[6]
  T/C: 112 % of control

## O=C(Oc1ccc(=O)[nH]n1)c1ccccc1
dose: 60.0 mg/kg/injection, schedule: Q01DX005 (ip), vehicle: Klucel (hydroxypropylcellulose) (HPC)
  T/C: 102 % of control
dose: 120.0 mg/kg/injection, schedule: Q01DX005 (ip), vehicle: Klucel (hydroxypropylcellulose) (HPC)
  T/C: 115 % of control
dose: 240.0 mg/kg/injection, schedule: Q01DX005 (ip), vehicle: Klucel (hydroxypropylcellulose) (HPC)
  T/C: 111 % of control

## CCCCCCCCCCCCCCCC[N+]1(CC)CCCC1
dose: 0.09 mg/kg/injection, schedule: Q01DX009 (ip), vehicle: saline
  T/C: 100 % of control
dose: 0.19 mg/kg/injection, schedule: Q01DX009 (ip), vehicle: saline
  T/C: 98 % of control
dose: 0.39 mg/kg/injection, schedule: Q01DX009 (ip), vehicle: saline
  T/C: 112 % of control and 93 % of control

## C#CCN(CC#C)S(=O)(=O)c1ccc(C)cc1
[1]
  T/C: 104 % of control
[2]
  T/C: 108 % of control
[3]
  T/C: 108 % of control
